Tested on: NOMO1
Experiment: cell viability relative to DMSO control; higher = less cytotoxic
Conditions: 48 h
Procedure, shortened: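 Viability is expressed as a percentage of DMSO wells within each plate, and cell-free wells serve as background. Seeding densities in the 1536-well plates (5 μl) were 500 cells/well for NOMO1 or SEM leukemia cells and 1000 cells/well for P12-Ichikawa. Each line was adapted for at least four passages in each medium. Library compounds in DMSO were pin-dosed at 47 μM to 0.79 nM (11 points, threefold), and CellTiter-Glo One luminescence was read after 48 h at 37°C.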

[1] = HPLM + 10% dialyzed FBS, 0.000781 µM
[2] = HPLM + 10% dialyzed FBS, 0.00234 µM
[3] = HPLM + 10% dialyzed FBS, 0.00702 µM
[4] = HPLM + 10% dialyzed FBS, 0.0211 µM
[5] = HPLM + 10% dialyzed FBS, 0.0632 µM
[6] = HPLM + 10% dialyzed FBS, 0.19 µM
[7] = HPLM + 10% dialyzed FBS, 0.569 µM
[8] = HPLM + 10% dialyzed FBS, 1.71 µM
[9] = HPLM + 10% dialyzed FBS, 5.12 µM
[10] = HPLM + 10% dialyzed FBS, 15.4 µM
[11] = HPLM + 10% dialyzed FBS, 46.1 µM
[12] = RPMI 5 mM glucose + 10% FBS, 0.000781 µM
[13] = RPMI 5 mM glucose + 10% FBS, 0.00234 µM
[14] = RPMI 5 mM glucose + 10% FBS, 0.00702 µM
[15] = RPMI 5 mM glucose + 10% FBS, 0.0211 µM
[16] = RPMI 5 mM glucose + 10% FBS, 0.0632 µM
[17] = RPMI 5 mM glucose + 10% FBS, 0.19 µM
[18] = RPMI 5 mM glucose + 10% FBS, 0.569 µM
[19] = RPMI 5 mM glucose + 10% FBS, 1.71 µM
[20] = RPMI 5 mM glucose + 10% FBS, 5.12 µM
[21] = RPMI 5 mM glucose + 10% FBS, 15.4 µM
[22] = RPMI 5 mM glucose + 10% FBS, 46.1 µM
[23] = RPMI 5 mM glucose + 10% dialyzed FBS, 0.000781 µM
[24] = RPMI 5 mM glucose + 10% dialyzed FBS, 0.00234 µM
[25] = RPMI 5 mM glucose + 10% dialyzed FBS, 0.00702 µM
[26] = RPMI 5 mM glucose + 10% dialyzed FBS, 0.0211 µM
[27] = RPMI 5 mM glucose + 10% dialyzed FBS, 0.0632 µM
[28] = RPMI 5 mM glucose + 10% dialyzed FBS, 0.19 µM
[29] = RPMI 5 mM glucose + 10% dialyzed FBS, 0.569 µM
[30] = RPMI 5 mM glucose + 10% dialyzed FBS, 1.71 µM
[31] = RPMI 5 mM glucose + 10% dialyzed FBS, 5.12 µM
[32] = RPMI 5 mM glucose + 10% dialyzed FBS, 15.4 µM
[33] = RPMI 5 mM glucose + 10% dialyzed FBS, 46.1 µM

| Structure (SMILES) | cell viability [1] | cell viability [2] | cell viability [3] | cell viability [4] | cell viability [5] | cell viability [6] | cell viability [7] | cell viability [8] | cell viability [9] | cell viability [10] | cell viability [11] | cell viability [12] | cell viability [13] | cell viability [14] | cell viability [15] | cell viability [16] | cell viability [17] | cell viability [18] | cell viability [19] | cell viability [20] | cell viability [21] | cell viability [22] | cell viability [23] | cell viability [24] | cell viability [25] | cell viability [26] | cell viability [27] | cell viability [28] | cell viability [29] | cell viability [30] | cell viability [31] | cell viability [32] | cell viability [33] |
| --- | --- | --- | --- | --- | --- | --- | --- | --- | --- | --- | --- | --- | --- | --- | --- | --- | --- | --- | --- | --- | --- | --- | --- | --- | --- | --- | --- | --- | --- | --- | --- | --- | --- |
| COc1cc2nc(N3CCN(C(=O)c4ccco4)CC3)nc(N)c2cc1OC | 77.8% | 103% | 93.7% | 97% | 98.3% | 105% | 105% | 92.8% | 91.8% | 43% | 5.27% | 72.1% | 78.4% | 81.6% | 83.9% | 87.5% | 91.9% | 82.2% | 85.1% | 90.7% | 95.9% | 4.8% | 72% | 83.6% | 82.1% | 80.5% | 90% | 92.2% | 95.2% | 98.2% | 80.4% | 88.4% | 4.29% |
| COCCNCCCn1c(C(=O)CF)c(-c2ccc(C)cc2)c2c(N)ncnc21 | 94.7% | 120% | 98.5% | 88.7% | 117% | 107% | 108% | 98% | 105% | 105% | 93.9% | 103% | 88% | 88.5% | 93.1% | 98% | 93.5% | 88.5% | 88.7% | 88.5% | 97.4% | 107% | 96.8% | 101% | 105% | 99.4% | 93.3% | 86.9% | 99.4% | 95.6% | 83.7% | 93% | 101% |
| OC[C@H]1O[C@H](C[C@@H]1O)N2\C=C(\I)C(=O)NC2=O | 107% | 118% | 105% | 126% | 116% | 113% | 114% | 125% | 105% | 91.3% | 79.2% | 112% | 120% | 110% | 113% | 120% | 116% | 127% | 119% | 129% | 115% | 88.6% | 103% | 118% | 114% | 117% | 132% | 117% | 133% | 104% | 97.1% | 98.5% | 86.2% |
| COC(=O)Nc1nc2cc(Sc3ccccc3)ccc2[nH]1 |  |  |  |  |  |  |  |  |  |  |  | 114% | 122% | 124% | 113% | 120% | 107% | 115% | 111% | 22.8% | 42.9% | 36.8% | 122% | 111% | 122% | 115% | 140% | 119% | 119% | 115% | 32.6% | 35.1% | 29.7% |
